In patent publication US12104180B2, “Enzyme with acyl transfer function and application thereof” (OCEAN UNIVERSITY OF CHINA, priority 2020, dated 2024):

Key:
[1] = tested on: B1-F10 murine melanoma cells; details: cited from earlier work
[2] = tested on: HIV virus; details: cited from earlier work
[3] = tested on: mammalian herpes simplex virus; details: cited from earlier work
[4] = tested on: methicillin-resistant Staphylococcus aureus; details: cited from earlier work
[5] = tested on: Burkholderia cepacia varieties; details: cited from earlier work
[6] = tested on: vancomycin-resistant Enterococci; details: cited from earlier work
[7] = tested on: Pyricularia oryzae; details: cited from earlier work
[8] = tested on: Alternaria alternata; details: cited from earlier work
[9] = tested on: Staphylococcus aureus; details: cited from earlier work
[10] = assay type: biochemical; details: 30° C., 2 h, substrate Macrolactin A

C[C@@H]1CCC/C=C/C=C/[C@H](O)C[C@@H](O)C/C=C\C=C\[C@@H](O)C/C=C/C=C\C(=O)O1 [Macrolactin A]
inhibition of B1-F10 murine melanoma cells [1]: can inhibit | protection of lymphocytes through inhibiting HIV virus [2]: can protect lymphocytes | inhibition of mammalian herpes simplex virus [3]: can inhibit

CC1CCCC=CC=CC(O)CC(O)CC=CC=CC(OC(=O)CC(=O)O)CC=CC=CC(=O)O1 (centres unmarked) [7-O-malonyl Macrolactin A]
inhibition of methicillin-resistant Staphylococcus aureus [4]: can sufficiently inhibit | inhibition of Burkholderia cepacia varieties [5]: can sufficiently inhibit | inhibition of vancomycin-resistant Enterococci [6]: can sufficiently inhibit

Macrolactin B
effect on plant pathogenic fungus Pyricularia oryzae [7]: obvious effects | effect on plant pathogenic fungus Alternaria alternata [8]: obvious effects | inhibition of Staphylococcus aureus [9]: inhibit

Macrolactin T
effect on plant pathogenic fungus Pyricularia oryzae [7]: obvious effects | effect on plant pathogenic fungus Alternaria alternata [8]: obvious effects | inhibition of Staphylococcus aureus [9]: inhibit

B1: wild-type BmmI protein: acyltransferase BmmI from marine-derived Bacillus methylotrophicus B-9987, sequence SEQ ID NO:1 (protein)
chain: MKQTISNPAFDMKQINALNGHYQTMIDNGDLQCASYMMSRGGEVFAAESLGEFTGGQKEKQTFQLDTIREIGSLTKVFTAVAVMQLVEKGLLDLKMPVKLILPAFDKPGFGEIKILHLLTHTAGLSFELDIQKAEGIDLTNEEEWINYLVSTPLEYGVDEAWNYSRTGFVILGIIISKVTGVSYEQYVTKHIIEALGLERTYFYVPDTLKEEVCVISEHECVQLEKSHHPYFPNKATSGLYSSLRDIWKLAEMFRNKGRLKDKKLLGRKTVEAMLRNQIKPGLPFYFFGAPREEGGFGLGINLWPAGDHYFMTEGTFSHLGMGWCGMFSDPAEDFTYVFFTPISEFHPHAVLTPLNIVWAGIE
modifications: bmmI acyltransferase protease sequence
acyl donors recognized (side chain length) ([10]; FIG. 7): malonyl-CoA (C3), succinyl-CoA (C4), glutaryl-CoA (C5) and hexanedioyl-CoA (C6)

B2: R166G (protein)
chain: MKQTISNPAFDMKQINALNGHYQTMIDNGDLQCASYMMSRGGEVFAAESLGEFTGGQKEKQTFQLDTIREIGSLTKVFTAVAVMQLVEKGLLDLKMPVKLILPAFDKPGFGEIKILHLLTHTAGLSFELDIQKAEGIDLTNEEEWINYLVSTPLEYGVDEAWNYSGTGFVILGIIISKVTGVSYEQYVTKHIIEALGLERTYFYVPDTLKEEVCVISEHECVQLEKSHHPYFPNKATSGLYSSLRDIWKLAEMFRNKGRLKDKKLLGRKTVEAMLRNQIKPGLPFYFFGAPREEGGFGLGINLWPAGDHYFMTEGTFSHLGMGWCGMFSDPAEDFTYVFFTPISEFHPHAVLTPLNIVWAGIE
modifications: mutant protein R166G amino acid sequence
catalytic efficiency towards glutaryl-CoA, hexanedioyl-CoA, acetyl-CoA, and acetyl-CoA ([10]; compared with wild type towards malonyl-CoA): equivalent to that of the wild-type protein towards malonyl-CoA
